Results: patent US7700584B2 (Hangzhou Minsheng Pharmaceuticals Co., Ltd., priority 2004, dated 2010)

Experiments:
Format in all cases: cell-based
Details in all cases: 50 μg/ml
[1] = system: Bel-7402 human hepatic carcinoma; experiment: In vitro inhibition rate to tumor cells (MTT), Bel-7402
Experimental: (§1) (1) Single cell suspension was seeded into 96-well plates (×3) (the cells was diluted in the PRMI-1640 minimum medium to 3×10^4 cells/ml, […] diluted cells/well). […] The experiments were performed in quadruplicate.
(§2) (2) The medium was removed. Solutions of the anti-tumor agents (15 compounds) were prepared in a freshly prepared medium at the concentrations indicated in the following Table. […] of the solution was added into each well. Incubation was continued for 48 hours.
(§3) (3) […] of 2 mg/ml MTT was added into each well, and incubated for 4 hours.
(§4) (4) The medium was removed from the well. The microplates were swiftly turned down to throw-off the medium. […] DMSO was added into each well, and vortexed at room temperature for 10 minutes.
(§5) (5) OD value (λ=570 nm) was measured with an Enzyme-Linked Detector.
(§6) (6) The inhibition rates (IR) of cell growth were respectively calculated based on the following equation: IR(%)=[1−(average OD of the experimental group/average OD of the control group)]×100%

[2] = system: A-549 human lung adenocarcinoma; experiment: In vitro inhibition rate to tumor cells (MTT), A-549
Experimental: as §1, §2, §3, §4, §5, §6

[3] = system: HL-60 human promyelocytic leukemia; experiment: In vitro inhibition rate to tumor cells (MTT), HL-60
Experimental: as §1, §2, §3, §4, §5, §6

[4] = system: LLC mouse Lewis lung carcinoma; experiment: In vitro inhibition rate to tumor cells (MTT), LLC
Experimental: as §1, §2, §3, §4, §5, §6

[5] = system: SMMC-7721 human hepatic carcinoma; experiment: In vitro inhibition rate to tumor cells (MTT), SMMC-7721
Experimental: as §1, §2, §3, §4, §5, §6

[6] = system: MCF-7 human mammary adenocarcinoma; experiment: In vitro inhibition rate to tumor cells (MTT), MCF-7
Experimental: as §1, §2, §3, §4, §5, §6

[7] = system: Hela human cervical carcinoma; experiment: In vitro inhibition rate to tumor cells (MTT), Hela
Experimental: as §1, §2, §3, §4, §5, §6

[8] = system: U-937 human histocytic lymphoma; experiment: In vitro inhibition rate to tumor cells (MTT), U-937
Experimental: as §1, §2, §3, §4, §5, §6

SMILES	inhibition rate, Results (%) Bel-7402 ([1]; Table 1) [%]	inhibition rate, Results (%) Bel-7402 ([1]; Table 2 (repeated screening)) [%]	inhibition rate, Results (%) A-549 ([2]; Table 1) [%]	inhibition rate, Results (%) A-549 ([2]; Table 2 (repeated screening)) [%]	inhibition rate, Results (%) HL-60 ([3]; Table 1) [%]	inhibition rate, Results (%) HL-60 ([3]; Table 2 (repeated screening)) [%]	inhibition rate, Results (%) LLC ([4]; Table 1) [%]	inhibition rate, Results (%) LLC ([4]; Table 2 (repeated screening)) [%]	inhibition rate, Results (%) SMMC-7721 ([5]; Table 1) [%]	inhibition rate, Results (%) SMMC-7721 ([5]; Table 2 (repeated screening)) [%]	inhibition rate, Results (%) MCF-7 ([6]; Table 1) [%]	inhibition rate, Results (%) MCF-7 ([6]; Table 2 (repeated screening)) [%]	inhibition rate, Results (%) Hela ([7]; Table 1) [%]	inhibition rate, Results (%) Hela ([7]; Table 2 (repeated screening)) [%]	inhibition rate, Results (%) U-937 ([8]; Table 1) [%]	inhibition rate, Results (%) U-937 ([8]; Table 2 (repeated screening)) [%]
COC12CC(=CBr)C3CCC(C)C3(CC1C(C)C)O2 (centres unmarked) [Compound 26, Curcumol methyl ether bromide]	3.45	−3.45	−3.24	−3.12	−0.23	−0.23	11.77	−11.77	0.97	−0.97	43.21	41.21	51.00	56.55	55.32	54.23
CCOC12CC(=CO[N+](=O)[O-])C3CCC(C)C3(CC1C(C)C)O2 (centres unmarked) [Compound 29, Curcumol ethyl ether nitrate]	2.51	3.21	3.89	1.23	42.12	42.79	−10.12	−1.95	4.26	5.68	37.85	30.12	56.98	50.17	25.32	12.32
CC(C)C1CC23OC1(O)CC(C)(N1CCNCC1)C2CCC3C.Cl (centres unmarked) [Compound 44, Curcumol piperazine hydrochloride without double bond]	−6.54	0.23	23.01	20.33	3.71	5.37	23.35	17.565	−10.53	−7.89	25.55	24.11	55.14	50.01	35.64	23.56
C=CC(=O)OC12CC(=C)C3CCC(C)C3(CC1C(C)C)O2 (centres unmarked) [Compound 22, Curcumol acrylate]	12.80	0.23	19.23	12.36	21.01	21.03	−6.01	−6.41	44.39	40.32	88.32	85.02	63.20	61.88	60.32	50.23
CC(C)C1CC23OC1(O)CC(CO[N+](=O)[O-])(O[N+](=O)[O-])C2CCC3C (centres unmarked) [Compound 31, Curcumol dinitrate]	0.23	8.42	8.65	4.82	16.50	2.78	1.13	1.25	−1.96	−4.56	16.75	14.87	57.98	55.49	−0.68	−12.61
CCCCNC1(C)CC2(OC)OC3(CC2C(C)C)C(C)CCC13 (centres unmarked) [Compound 45, Curcumol methyl ether n-butyl amine without double bond]	3.01	5.02	2.10	0.32	6.14	1.23	2.74	1.32	−10.73	−11.23	26.78	20.73	59.45	53.12	32.19	12.32
CC(C)C1CC23OC1(O)CC(C)(Br)C2CCC3C (centres unmarked) [Compound 34, Curcumol monobromide without double bond]	1.11	0.59	2.31	9.23	2.96	3.14	−18.52	−11.22	−5.25	0.95	1.23	4.56	50.64	51.89	35.23	23.56
CCCCNC1(C)CC2(OC)OC3(CC2C(C)C)C(C)CCC13.Cl (centres unmarked) [Compound 46, Curcumol methyl ether n-butyl amine hydrochloride without double bond]	4.55	4.65	3.12	3.78	−2.60	−4.56	−12.99	−17.56	−0.86	−0.45	19.88	14.98	53.12	49.56	16.32	8.65
